From patent publication EP4786454A1, “HETEROARYL DERIVATIVE AND USE THEREOF” (priority 2023, dated 2025)

Tests used:
[1] = Plasma protein binding rate, equilibrium dialysis (mouse plasma); assay type: in vitro ADME, CD-1 mice; conditions: m (CD-1 mouse plasma), dialysis 4 hours at 37 °C, read-out: Unbound PPB%
Procedure: (§1) The protein binding rates of the compounds in the plasma of CD-1 mice, Sprague-Dawley rats, beagle dogs, cynomolgus monkeys, and human were determined using equilibrium dialysis method.
(§2) Commercially available plasma, dual-layer dialysis membrane, and equilibrium dialysis device.
(§3) The dual-layer dialysis membrane was soaked in ultrapure water for about 1 hour, removed and then divided into two parts. It was then soaked in an ethanol:water (20:80, v:v) solution for 20 minutes or placed at 2 to 8 °C, and it was valid for 1 month. Before starting the assay, the dialysis membrane was rinsed twice with ultrapure water and then soaked in ultrapure water for another 20 minutes for later use.
(§4) On the day of assay, the frozen plasma of CD-1 mice, Sprague-Dawley rats, beagle dogs, cynomolgus monkeys, and human was thawed in running cold tap water. After the plasma was completely thawed, the plasma was centrifuged at 3220×g for 5 minutes, and the suspended substances and precipitates in it were removed. The pH of the plasma was determined. The plasma with a pH in the range of 7.4 ± 0.1 was directly used, or the plasma with a pH in the range of 7.4 ± 0.1 after an adjustment with 1% phosphoric acid or 1M sodium hydroxide was used.
(§5) Preparation process of plasma samples: 597 µL of blank plasma from each of the above five species was taken, respectively. 3 µL of a compound or warfarin working solution was added, and the mixture was mixed thoroughly to give a plasma sample with a compound concentration of 2 µM and a warfarin concentration of 2 µM (n=1). The concentration of the organic phase DMSO was 0.5%. The sample was thoroughly mixed before proceeding to the next step.
(§6) Preparation process of T0 samples: 50 µL of a plasma sample containing the compound and warfarin was transferred to a sample receiving plate (n=3), and 50 µL of blank PBS was immediately added. Then, 500 µL of stop solution was added to the T0 sample of the compound and warfarin, and the mixture was stored at 2 to 8 °C, waiting to be processed later together with other dialysis-processed samples.
(§7) Dialysis process of plasma samples: 100 µL of a compound (2 µM) and warfarin (2 µM) plasma sample was added to the donor of each dialysis well (n=3), and 100 µL of blank PBS was added to the corresponding receiver of the dialysis well. The dialysis plate was placed in a 5% CO2 incubator, and incubated at 37 °C with shaking at approximately 100 rpm for 4 hours.
(§8) After the dialysis was completed, 50 µL of dialysis-processed PBS sample and dialysis-processed plasma sample (n=3) were transferred to a new 96-well plate (sample receiving plate). The corresponding volume of the corresponding blank plasma or PBS was added to the sample to make the final volume of each sample well 100 µL, with a plasma to PBS volume ratio of 1:1. All the samples were analyzed by LC-MS/MS after protein precipitation.
(§9) The formulas for calculating the unbound fraction (%Unbound), bound fraction (%Bound) and recovery fraction (%Recovery) of a compound are as follows: %Unbound = 100 ×F / T %Bound = 100 - %Unbound %Recovery = 100 ×(F + T)/ T0 wherein F is the concentration of the compound at the receiver of dialysis; T is the concentration of the compound at the supply end of dialysis; and T0 is the concentration of the compound in the plasma at time zero.

[2] = Plasma protein binding rate, equilibrium dialysis (monkey plasma); assay type: in vitro ADME, cynomolgus monkeys; conditions: c (cynomolgus monkey plasma), dialysis 4 hours at 37 °C, read-out: Unbound PPB%
Procedure: as §1, §2, §3, §4, §5, §6, §7, §8, §9

Row | Structure (SMILES) | fraction unbound at 4 h, 2 µM [1] | fraction unbound at 4 h, 2 µM [2]
1 | CC(C)(C)CC(=O)Nc1nc2c(F)cc(C#N)cn2c1C12CC(C1)C2 [Compound 5] | 0.141 | 0.159
2 | CC(C)(C)CC(=O)Nc1nc2c(F)cc(C#N)cn2c1C1=CCCC1 [Compound 3] | 0.087 | 0.134
3 | CC(C)(C)CC(=O)Nc1nc2c(F)cc(C#N)cn2c1-c1ccc(OC(F)(F)F)cc1 [Compound 1] | 0.047 | 0.072
